Assay results: patent publication US20150307520A1, “NOVEL HETEROARYL AND HETEROCYCLE COMPOUNDS, COMPOSITIONS AND METHODS THEREOF” (HUTCHISON MEDIPHARMA LIMITED, priority 2012, published 2015)

Key:
Type in all cases: biochemical
p110δ/p85α = p110δ/p85α (Homo sapiens, UniProt O00329); test: Transcreener KINASE Assay, kinase inhibition of p110δ/p85α; details: for PI3Kδ IH % @ 1 uM: 1 uM test compound; for IC50: read-out: PI3Kδ IC50
Description: (§1) PI3K kinases including p110α/p85α, p110δ/p85α and p110γ are purchased from Invitrogen, and p110β/p85α is from Millipore.
(§2) Primary screening data and IC50 values are measured using Transcreener™ KINASE Assay (Bellbrook, Catalog #3003-10K). […] It is a universal, homogenous, high throughput screening (HTS) technology using a far-red, competitive fluorescence polarization immunoassay based on the detection of ADP to monitor the activity of enzymes that catalyze group transfer reactions. Briefly, the Transcreener KINASE Assay is designed as a simple two-part, endpoint assay.
(§3) In the first step, the 25 ul kinase reaction is performed by preparing a reaction mixture containing 5 ul test compound (2% DMSO final concentration), 10 ul kinase, buffer (50 mM HEPES, 100 mM NaCl, 1 mM EGTA, 0.03% CHAPS, 3 mM MgCl2, and freshly supplemented 1 mM DTT), and 10 ul 30 uM PIP2/10 uM ATP. The plate is sealed and incubated for 80 min at room temperature. Next, 25 ul ADP detection mix is added per well. The plate is sealed again and incubated for 60 min at room temperature, and then measure fluorescence polarization by Tecan Infinite F500 Reader.
(§4) Data is analyzed and IC50s are generated using the add-in software for Microsoft Excel, Xlfit™ (version 2.0). IH %=(ADP amount under 2% DMSO-ADP amount under test compound)/ADP amount under 2% DMSO.

p110γ = p110γ (Homo sapiens, UniProt P48736); test: Transcreener KINASE Assay, kinase inhibition of p110γ; details: for PI3Kγ IH % @ 1 uM: 1 uM test compound; for IC50: read-out: PI3Kγ IC50
p110γ, sequence (P48736 whole entry): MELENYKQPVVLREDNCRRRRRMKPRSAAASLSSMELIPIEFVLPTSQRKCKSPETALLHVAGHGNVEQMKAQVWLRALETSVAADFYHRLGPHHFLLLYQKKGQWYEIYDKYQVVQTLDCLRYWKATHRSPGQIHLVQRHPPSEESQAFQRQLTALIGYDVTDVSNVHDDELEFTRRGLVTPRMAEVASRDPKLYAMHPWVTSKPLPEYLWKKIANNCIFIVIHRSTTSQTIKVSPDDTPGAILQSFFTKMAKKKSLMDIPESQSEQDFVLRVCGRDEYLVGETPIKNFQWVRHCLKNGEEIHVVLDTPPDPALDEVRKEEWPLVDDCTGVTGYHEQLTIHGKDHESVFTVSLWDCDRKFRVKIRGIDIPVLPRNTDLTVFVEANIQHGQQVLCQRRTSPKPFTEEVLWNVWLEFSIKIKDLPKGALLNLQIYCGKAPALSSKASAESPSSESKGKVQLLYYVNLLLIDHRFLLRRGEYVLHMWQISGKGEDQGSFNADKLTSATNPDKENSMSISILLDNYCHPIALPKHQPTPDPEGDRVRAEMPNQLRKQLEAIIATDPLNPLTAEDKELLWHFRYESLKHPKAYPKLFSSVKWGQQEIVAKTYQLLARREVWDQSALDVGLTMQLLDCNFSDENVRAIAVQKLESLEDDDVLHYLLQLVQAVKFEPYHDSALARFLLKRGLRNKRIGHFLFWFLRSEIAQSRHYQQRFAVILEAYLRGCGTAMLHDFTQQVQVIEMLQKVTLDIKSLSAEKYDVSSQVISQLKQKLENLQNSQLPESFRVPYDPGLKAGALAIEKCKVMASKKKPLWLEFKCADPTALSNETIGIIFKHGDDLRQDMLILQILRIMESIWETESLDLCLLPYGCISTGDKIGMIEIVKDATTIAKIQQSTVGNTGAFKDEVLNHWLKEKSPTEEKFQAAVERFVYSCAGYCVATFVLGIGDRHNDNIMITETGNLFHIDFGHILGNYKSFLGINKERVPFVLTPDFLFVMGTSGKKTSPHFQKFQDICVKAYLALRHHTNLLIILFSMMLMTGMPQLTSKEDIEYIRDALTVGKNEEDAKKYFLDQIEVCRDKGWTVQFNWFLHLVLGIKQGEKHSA
Description: Kinase Inhibition assays of p110α/p85α, p110β/p85α, p110δ/p85α and p110γ PI3K kinases including p110α/p85α, p110δ/p85α and p110γ are purchased from Invitrogen, and p110β/p85α is from Millipore. Primary screening data and IC50 values are measured using Transcreener™ KINASE Assay (Bellbrook, Catalog #3003-10K). […] It is a universal, homogenous, high throughput screening (HTS) technology using a far-red, competitive fluorescence polarization immunoassay based on the detection of ADP to monitor the activity of enzymes that catalyze group transfer reactions. Briefly, the Transcreener KINASE Assay is designed as a simple two-part, endpoint assay. […] The plate is sealed and incubated for 80 min at room temperature. Next, 25 ul ADP detection mix is added per well. The plate is sealed again and incubated for 60 min at room temperature, and then measure fluorescence polarization by Tecan Infinite F500 Reader. Data is analyzed and IC50s are generated using the add-in software for Microsoft Excel, Xlfit™ (version 2.0).

p110β/p85α = p110β/p85α (Homo sapiens, UniProt P42338); test: Transcreener KINASE Assay, kinase inhibition of p110β/p85α; details: for PI3Kβ IH % @ 1 uM: 1 uM test compound; for IC50: read-out: PI3Kβ IC50
p110β/p85α, sequence (P42338 whole entry): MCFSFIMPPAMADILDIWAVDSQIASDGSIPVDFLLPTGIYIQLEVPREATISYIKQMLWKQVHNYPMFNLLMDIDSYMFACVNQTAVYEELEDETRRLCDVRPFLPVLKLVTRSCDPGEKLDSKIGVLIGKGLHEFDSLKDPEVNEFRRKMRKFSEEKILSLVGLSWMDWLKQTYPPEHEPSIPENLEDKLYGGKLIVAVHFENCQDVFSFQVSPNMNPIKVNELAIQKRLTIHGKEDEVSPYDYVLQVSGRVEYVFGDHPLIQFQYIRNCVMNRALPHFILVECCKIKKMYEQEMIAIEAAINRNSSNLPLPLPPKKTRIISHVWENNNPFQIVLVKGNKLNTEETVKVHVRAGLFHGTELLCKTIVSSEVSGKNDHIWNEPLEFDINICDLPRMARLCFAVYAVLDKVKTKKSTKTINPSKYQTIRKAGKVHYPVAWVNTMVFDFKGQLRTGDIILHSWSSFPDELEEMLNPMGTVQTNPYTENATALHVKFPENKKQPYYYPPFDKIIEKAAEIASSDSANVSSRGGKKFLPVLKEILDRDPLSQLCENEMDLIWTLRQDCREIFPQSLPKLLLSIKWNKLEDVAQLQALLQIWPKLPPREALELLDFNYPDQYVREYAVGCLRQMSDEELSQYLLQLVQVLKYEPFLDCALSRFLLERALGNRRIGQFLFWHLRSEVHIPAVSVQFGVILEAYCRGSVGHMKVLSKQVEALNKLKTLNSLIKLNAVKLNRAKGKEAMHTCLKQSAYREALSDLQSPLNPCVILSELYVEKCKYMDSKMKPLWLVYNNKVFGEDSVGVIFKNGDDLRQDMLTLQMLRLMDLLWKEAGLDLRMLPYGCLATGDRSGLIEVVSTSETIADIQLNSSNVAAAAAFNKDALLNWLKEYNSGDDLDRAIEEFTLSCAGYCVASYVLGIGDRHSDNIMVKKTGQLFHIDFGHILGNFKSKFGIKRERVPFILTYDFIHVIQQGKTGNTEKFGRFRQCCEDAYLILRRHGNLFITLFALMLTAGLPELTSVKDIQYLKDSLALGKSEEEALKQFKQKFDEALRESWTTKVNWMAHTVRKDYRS
p110β/p85α, sequence (P27986 2-724 partner): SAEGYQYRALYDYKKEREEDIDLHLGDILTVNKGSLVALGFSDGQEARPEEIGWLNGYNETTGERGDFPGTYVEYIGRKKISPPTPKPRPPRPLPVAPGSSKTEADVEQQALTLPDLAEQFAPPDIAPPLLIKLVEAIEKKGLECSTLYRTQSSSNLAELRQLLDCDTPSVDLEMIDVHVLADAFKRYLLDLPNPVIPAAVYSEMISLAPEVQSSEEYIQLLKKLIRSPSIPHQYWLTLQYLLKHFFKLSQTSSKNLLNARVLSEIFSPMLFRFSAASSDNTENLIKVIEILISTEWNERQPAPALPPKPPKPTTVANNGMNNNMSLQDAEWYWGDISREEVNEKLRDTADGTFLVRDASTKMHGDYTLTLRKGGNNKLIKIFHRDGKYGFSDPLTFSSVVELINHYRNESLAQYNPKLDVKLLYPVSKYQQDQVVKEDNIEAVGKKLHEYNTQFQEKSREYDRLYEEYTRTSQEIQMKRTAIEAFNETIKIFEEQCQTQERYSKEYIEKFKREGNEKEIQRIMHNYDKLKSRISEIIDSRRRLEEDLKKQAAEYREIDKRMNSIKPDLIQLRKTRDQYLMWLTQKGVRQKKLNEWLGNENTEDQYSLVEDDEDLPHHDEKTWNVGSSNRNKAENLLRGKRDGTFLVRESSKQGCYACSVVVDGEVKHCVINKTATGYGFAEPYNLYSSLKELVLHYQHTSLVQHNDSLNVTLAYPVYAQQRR
Description: as §1, §2, §3, §4

p110δ/p85α, sequence (O00329 whole entry): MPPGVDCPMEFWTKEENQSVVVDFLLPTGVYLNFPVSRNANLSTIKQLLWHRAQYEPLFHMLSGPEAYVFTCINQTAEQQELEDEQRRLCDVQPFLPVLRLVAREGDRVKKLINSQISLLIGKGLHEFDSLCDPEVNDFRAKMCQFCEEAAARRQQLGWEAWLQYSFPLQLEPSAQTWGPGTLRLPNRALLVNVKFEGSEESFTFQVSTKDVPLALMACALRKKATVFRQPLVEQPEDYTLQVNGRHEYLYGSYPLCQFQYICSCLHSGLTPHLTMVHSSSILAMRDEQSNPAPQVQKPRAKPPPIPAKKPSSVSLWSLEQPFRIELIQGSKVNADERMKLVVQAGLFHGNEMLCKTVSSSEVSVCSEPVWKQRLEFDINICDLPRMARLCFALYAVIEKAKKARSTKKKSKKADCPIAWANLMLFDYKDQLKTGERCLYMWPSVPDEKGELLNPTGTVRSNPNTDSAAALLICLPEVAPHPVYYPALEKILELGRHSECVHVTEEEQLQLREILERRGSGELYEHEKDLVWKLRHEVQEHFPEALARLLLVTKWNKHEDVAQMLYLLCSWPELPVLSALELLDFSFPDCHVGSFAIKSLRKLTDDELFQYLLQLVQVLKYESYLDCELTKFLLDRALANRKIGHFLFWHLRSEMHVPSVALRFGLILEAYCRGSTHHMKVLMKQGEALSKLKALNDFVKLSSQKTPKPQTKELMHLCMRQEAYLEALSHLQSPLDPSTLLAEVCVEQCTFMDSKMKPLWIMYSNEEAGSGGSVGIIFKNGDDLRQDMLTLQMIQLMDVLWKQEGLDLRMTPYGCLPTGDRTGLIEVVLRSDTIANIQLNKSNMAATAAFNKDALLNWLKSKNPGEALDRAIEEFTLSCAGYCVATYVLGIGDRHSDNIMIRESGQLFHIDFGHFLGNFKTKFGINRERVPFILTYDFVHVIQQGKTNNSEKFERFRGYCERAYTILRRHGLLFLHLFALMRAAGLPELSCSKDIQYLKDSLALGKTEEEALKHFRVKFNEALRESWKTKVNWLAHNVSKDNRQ
p110δ/p85α, sequence (P27986 whole entry partner): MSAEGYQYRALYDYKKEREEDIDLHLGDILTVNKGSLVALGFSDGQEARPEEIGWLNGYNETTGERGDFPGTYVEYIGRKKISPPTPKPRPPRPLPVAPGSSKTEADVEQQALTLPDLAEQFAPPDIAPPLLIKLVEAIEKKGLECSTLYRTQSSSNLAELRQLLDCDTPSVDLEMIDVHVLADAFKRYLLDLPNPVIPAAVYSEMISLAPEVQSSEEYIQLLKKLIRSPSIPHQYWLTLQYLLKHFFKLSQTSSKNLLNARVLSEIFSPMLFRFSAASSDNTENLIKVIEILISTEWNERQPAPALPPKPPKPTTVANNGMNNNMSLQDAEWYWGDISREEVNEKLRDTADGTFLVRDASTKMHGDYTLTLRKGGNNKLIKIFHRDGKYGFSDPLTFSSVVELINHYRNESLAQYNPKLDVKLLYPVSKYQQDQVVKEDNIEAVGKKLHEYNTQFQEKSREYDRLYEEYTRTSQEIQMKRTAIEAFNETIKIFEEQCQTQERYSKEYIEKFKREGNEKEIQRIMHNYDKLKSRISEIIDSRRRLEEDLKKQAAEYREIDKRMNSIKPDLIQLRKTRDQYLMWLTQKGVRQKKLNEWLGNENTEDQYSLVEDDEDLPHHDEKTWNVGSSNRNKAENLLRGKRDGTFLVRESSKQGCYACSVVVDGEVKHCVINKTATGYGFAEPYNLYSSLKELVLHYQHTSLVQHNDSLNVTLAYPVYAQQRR

Row | Structure (SMILES) | PI3Kδ IH % @ 1 uM (p110δ/p85α) [%] | PI3Kγ IH % @ 1 uM (p110γ) [%] | IC50 (p110γ) [nM] | PI3Kβ IH % @ 1 uM (p110β/p85α) [%] | IC50 (p110δ/p85α) [nM] | IC50 (p110β/p85α) [nM]
1 | C[S+]([O-])c1n[nH]c2ncnc(N3CC[C@H]3c3nn4ccc(Cl)c4c(=O)n3-c3ccccc3)c12 (stereo partly shown) [Compound 353] | 33.8 | 79.2 | 223 | 14.6 | – | –
2 | Cc1ccn2cc(C(C)Nc3ncnc(N)c3C#N)n(-c3ccccc3)c(=O)c12 (stereo not shown) [Compound 90, 4-amino-6-(1-(8-methyl-1-oxo-2-phenyl-1,2-dihydropyrrolo[1,2-a]pyrazin-3-yl)ethylamino)pyrimidine-5-carbonitrile] | >100 | 95.7 | 34 | 93.1 | – | 24
3 | Nc1nc(N2CC[C@H]2c2nn3ccc(Br)c3c(=O)n2-c2ccccc2)n2nccc2n1 [Compound 135] | 74.5 | >100 | 12 | 20.6 | 51 | –
4 | N#Cc1cnc(N)nc1N1CC[C@H]1c1nn2ccc(Cl)c2c(=O)n1-c1ccccc1 [Compound 212] | 95.3 | >100 | – | 37.0 | 12 | –
5 | N#Cc1c[nH]c2ncnc(N3C[C@@H](C#N)C[C@H]3c3nn4ccc(Cl)c4c(=O)n3-c3cccc(F)c3)c12 [Compound 350] | >100 | >100 | 4 | >100 | 1 | 35
6 | CN(C)CCn1c([C@@H]2CCCN2c2ncnc3[nH]cc(C#N)c23)nn2ccc(Cl)c2c1=O [Compound 252] | 97.0 | 68.9 | – | 56.6 | 7 | –
7 | Cn1cc(-c2cnc(N)nc2N2CC[C@H]2c2nn3ccc(Cl)c3c(=O)n2-c2ccccc2)cn1 [Compound 280] | 47.0 | 87.2 | 256 | −2.0 | – | –
8 | C[S+]([O-])c1c[nH]c2ncnc(N3C[C@@H](F)C[C@H]3c3nn4ccc(Cl)c4c(=O)n3-c3ccccc3)c12 (stereo partly shown) [Compound 267] | 98.9 | >100 | 13 | 73.2 | 3 | 206
9 | CSc1n[nH]c2ncnc(N3CC[C@H]3c3nn4ccc(Cl)c4c(=O)n3-c3ccccc3)c12 [Compound 222] | 43.0 | 88.1 | 21 | 40.5 | – | –
10 | C#Cc1cnc(N)nc1N1CC[C@H]1c1nn2ccc(Cl)c2c(=O)n1-c1ccccc1 [Compound 224] | 85.9 | >100 | – | 22.7 | 60 | –
11 | N#Cc1c(N)ncnc1N1CC[C@H]1c1nn2cccc2c(=O)n1-c1ccccc1 [Compound 8] | 76.2 | 40.2 | – | 33.3 | 272 | –
12 | N#Cc1c[nH]c2ncnc(N3CC[C@H]3c3nn4ccc(F)c4c(=O)n3-c3ccccc3)c12 [Compound 46] | >100 | 68.1 | – | 33.8 | 14 | –
13 | CC(Nc1nc(N)ncc1C(F)(F)F)c1cc2ncc(Cl)n2c(=O)n1-c1ccccc1 (stereo not shown) [Compound 154] | 97.6 | 93.7 | 40 | 56.7 | 3 | –
14 | N#Cc1c[nH]c2ncnc(N3CC[C@H]3c3nn4ccc(Cl)c4c(=O)n3-c3ccc(F)cc3)c12 [Compound 37] | 81.2 | 83.3 | 89 | 30.6 | – | –
15 | CC(Nc1ncnc(N)c1C#N)c1cn2ccc(Cl)c2c(=O)n1-c1ccc(F)cc1 (stereo not shown) [Compound 79] | 99.0 | 91.6 | – | 96.3 | – | –
16 | O=c1c2c(Cl)ccn2nc([C@@H]2CCN2c2ncnc3[nH]cc(C4=NCCO4)c23)n1-c1ccccc1 [Compound 305] | >100 | 97.6 | 7 | 91.6 | 21 | 125
17 | N#Cc1cnc(N)nc1N1CCC1c1nn2ccc(Cl)c2c(=O)n1CC1CC1 (stereo not shown) [Compound 373] | – | – | – | 37.4 | – | –
18 | CC(Nc1ncnc2[nH]cnc12)c1cn2ccc(Cl)c2c(=O)n1-c1ccccc1 (stereo not shown) [Compound 87] | – | >100 | 8 | 90.8 | – | 49
19 | Nc1ncc(C(=O)C(F)(F)F)c(N2CC[C@H]2c2nn3ccc(Cl)c3c(=O)n2-c2ccccc2)n1 [Compound 325] | – | – | – | – | 524 | –
20 | Nc1nc(N2CC[C@H]2c2nn3ccc(Cl)c3c(=O)n2-c2ccccc2)c2cccn2n1 [Compound 329, (S)-2-(1-(2-aminopyrrolo[2,1-f][1,2,4]triazin-4-yl)azetidin-2-yl)-5-chloro-3-phenyl-pyrrolo[2,1-f][1,2,4]triazin-4(3H)-one] | 50.3 | 91.6 | 227 | – | – | –

Other lines, results leading:

Row | PI3Kδ IH % @ 1 uM (p110δ/p85α) [%] | PI3Kγ IH % @ 1 uM (p110γ) [%] | IC50 (p110γ) [nM] | PI3Kβ IH % @ 1 uM (p110β/p85α) [%] | IC50 (p110δ/p85α) [nM] | IC50 (p110β/p85α) [nM] | Structure (SMILES)
21 | >100 | 91.1 | 11 | 67.6 | 6 | – | Cc1nc(N)nc(N2CC[C@H]2c2nn3ccc(C#N)c3c(=O)n2-c2ccccc2)c1C#N [Compound 497, (S)-2-(1-(2-amino-5-cyano-6-methylpyrimidin-4-yl)azetidin-2-yl)-4-oxo-3-phenyl-3,4-dihydropyrrolo[2,1-f][1,2,4]triazine-5-carbonitrile]
22 | 99.7 | 83.7 | – | 91.2 | 3 | 14 | CC(=O)c1cnc(N)nc1NC(C)c1cn2ccc(Cl)c2c(=O)n1-c1cccc(F)c1 (stereo not shown) [Compound 435]
23 | 93.4 | 65.8 | – | 21.7 | 67 | – | CC(=O)c1c[nH]c2ncnc(N3CC(=O)C[C@H]3c3nn4ccc(Cl)c4c(=O)n3-c3ccccc3)c12 [Compound 402]
24 | 94.2 | 94.6 | 1 | 76.1 | 12 | – | Cc1nc(N)nc(N2CC[C@H]2c2nn3ccc(Cl)c3c(=O)n2-c2ccc(F)cc2)c1C#N [Compound 442]
25 | – | 93.5 | – | 55.70 | – | – | C[C@H]1CN(c2ncnc(N)c2C#N)C1c1nn2ccc(Cl)c2c(=O)n1-c1ccccc1 (stereo partly shown) [Compound 494]
26 | >100 | >100 | – | – | – | – | CC(=O)c1cnc(N)nc1N1C[C@H](C)[C@H]1c1nn2ccc(Cl)c2c(=O)n1-c1cc(F)cc(F)c1 [Compound 518]
27 | 99.5 | >100 | – | – | – | – | CC(=O)c1cnc(N)nc1N1CC[C@H]1c1nn2ccc(Cl)c2c(=O)n1-c1cc(F)cc(F)c1 [Compound 495]
28 | >100 | >100 | – | – | – | – | CC(=O)c1c(N)ncnc1N1C[C@H](C)[C@H]1c1nn2ccc(Cl)c2c(=O)n1-c1ccccc1 [Compound 509]
29 | >100 | >100 | 13 | – | 21 | – | CC(=O)c1cnc(N)nc1N1CC[C@H]1c1nn2ccc(C#N)c2c(=O)n1-c1ccccc1 [Compound 498]
